Data: patent US9024032B2, “Inhibitors of catechol O-methyl transferase and their use in the treatment of psychotic disorders” (Merck Sharp & Dohme Corp., priority 2010, dated 2015)

Target: T1, purified human COMT enzyme of the Val158 variant (membrane-bound MB-COMT) (Homo sapiens, UniProt P21964)
T1 construct: 6xHis or 10xHis (C)
T1 sequence (P21964 1-271): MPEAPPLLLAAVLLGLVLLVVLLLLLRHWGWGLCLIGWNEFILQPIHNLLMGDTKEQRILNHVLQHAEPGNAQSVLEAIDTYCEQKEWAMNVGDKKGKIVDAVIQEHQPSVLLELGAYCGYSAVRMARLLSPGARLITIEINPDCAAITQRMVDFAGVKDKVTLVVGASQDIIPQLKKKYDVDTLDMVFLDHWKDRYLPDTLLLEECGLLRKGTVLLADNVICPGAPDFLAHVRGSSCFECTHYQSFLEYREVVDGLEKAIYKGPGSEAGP
Test: MB-COMT inhibition, Esculetin or Fluorescence Polarization assay
Assay type: biochemical
Details: not given

| SMILES | IC50 |
| --- | --- |
| COc1ccc(-c2nc3cc(-n4ccc(=O)c(O)c4)ccc3[nH]2)cc1 [Example 2, 3-hydroxy-1-[2-(4-methoxyphenyl)-1H-benzimidazol-5-yl]pyridin-4(1H)-one] | 64 nM |

Same assay, conditions: Esculetin or Fluorescence Polarization assay; human Val158 variant; read-out: MB-COMT IC50-

| SMILES | IC50 |
| --- | --- |
| CC(O)c1cc(=O)c(O)cn1-c1cccc(-c2c(Cl)cnc3[nH]ccc23)c1 (single isomer, unassigned) [Example 13, 1-[3-(5-chloro-1H-pyrrolo[2,3-b]pyridin-4-yl)phenyl]-5-hydroxy-2-(1-hydroxyethyl)-pyridin-4(1H)-one] | 41 nM |
| Nc1cc(=O)c(O)cn1-c1cccc(-c2ccccc2)c1 [Example 3, 2-Amino-1-(biphenyl-3-yl)-5-hydroxypyridin-4(1H)-one] | 75 nM |
| CNc1cc(=O)c(O)cn1-c1cccc(-c2ccccc2)c1 [Example 4, 1-(Biphenyl-3-yl)-5-hydroxy-2-(methylamino)pyridin-4(1H)-one] | 100 nM |
| O=c1ccn(-c2cccc(-c3cccc4[nH]ncc34)n2)cc1O [Example 8, 3-Hydroxy-6′-(1H-indazol-4-yl)-4H-1,2′-bipyridin-4-one] | 21 nM |
| O=c1ccn(-c2nccc(-c3c(Cl)cnc4[nH]ccc34)c2F)cc1O [Example 9, 4′-(5-chloro-1H-pyrrolo[2,3-b]pyridin-4-yl)-3′-fluoro-3-hydroxy-4H-1,2′-bipyridin-4-one] | 8 nM |
| Cc1cc(=O)c(O)cn1-c1cccc2c1ncn2Cc1c(F)cccc1Cl [Example 10, 1-[1-(2-Chloro-6-fluorobenzyl)-1H-benzimidazol-4-yl]-5-hydroxy-2-methylpyridin-4(1H)-one] | 191 nM |
| COc1ncc(F)cc1C(O)Cc1cc(=O)c(O)cn1-c1cccc(-c2ccccc2)c1 (centres unmarked) [Example 11, 1-biphenyl-3-yl-2-[2-(5-fluoro-2-methoxypyridin-3-yl)-2-hydroxyethyl]-5-hydroxypyridin-4(1H)-one] | 87 nM |
| O=c1cc(C(O)C#Cc2ccccc2)n(-c2cccc(-c3c(Cl)cnc4[nH]ccc34)c2)cc1O (centres unmarked) [Example 12, 1-[3-(5-chloro-1H-pyrrolo[2,3-b]pyridin-4-yl)phenyl]-5-hydroxy-2-(1-hydroxy-3-phenylprop-2-yn-1-yl)pyridin-4(1H)-one] | 26 nM |
| CC(O)c1cc(=O)c(O)cn1-c1cccc(-c2cncc3ccccc23)c1 (centres unmarked) [Example 14, 5-hydroxy-2-(1-hydroxyethyl)-1-[3-(isoquinolin-4-yl)phenyl]pyridin-4(1H)-one] | 226 nM |
| O=c1cc(C(O)C(F)(F)F)n(-c2cccc(-c3cccc4ncccc34)c2)cc1O (centres unmarked) [Example 15, 5-hydroxy-1-[3-(quinolin-5-yl)phenyl]-2-(2,2,2-trifluoro-1-hydroxyethyl)pyridin-4(1H)-one] | 70 nM |
